One test concerns chorioallantoic membrane. In words: Anti-redness effect: Het-CAM method. The conditions noted are these: 5000 ppm aspirin (positive control); SDS irritant; irritant alone 10 +/− 1.63. The source says: b. Evaluation of the Anti-Redness Effect: Het-CAM Method The Het-CAM model is recommended as an alternative method for the evaluation of the irritant effect of cosmetics. The model uses eggs at a very early stage of development since the nervous system is not yet fully developed (JORF No. 300, Dec. 26, 1996). A moderately irritant product induces instantaneous changes in the capillary density of the chorioallantoic membrane. Previously invisible blood vessels become clearly visible under the effect of vasodilatation. This property was exploited to evaluate the effect of the combination of oridonin and darutoside. The combination oridonin+darutoside was applied to the surface of the chorioallantoic membrane and, after incubation, a surfactant, used as an SDS irritant agent, in an appropriate concentration, was applied to the surface of the membrane. A score was determined by an experienced operator and compared to that for the membranes exposed to the irritant alone (negative control) and that for the membranes exposed to aspirin, used as the positive control (JORF published method, modified).

Test [1] has as its system reduced glutathione (GSH). In words: Stimulation of reduced glutathione (GSH) synthesis, ELISA. It is filed as cell-based. The conditions noted are these: human keratinocytes, 24 h. How it is done:
c. Stimulation of Reduced Glutathione (GSH) Synthesis
Human keratinocytes at confluence are exposed 24 h to tested products. Intracellular GSH concentration was determined by ELISA.

The test system of another test is Human melanocytes. In words: Melanogenesis of human melanocytes in monolayer (melanin content). It counts as cell-based. The conditions noted are these: 5 days, n=4. Here is the method: iii. Change in the Melanogenesis of Human Melanocytes in Monolayer
Human melanocytes were cultured and exposed with the test products for 5 days. After incubation the melanin content was measured in cell homogenates (n=4).

The nature of test [2]: Oxygen-Radical Absorbance Capacity (ORAC) test. It counts as biochemical. As to conditions: n = 6, vs control. The source says:
a. Reduction in Peroxyl Radicals: ORAC Test
The Oxygen-Radical Absorbance Capacity (ORAC) test is a method enabling evaluation of the antioxidant capability of molecules and extracts of plant origin. […] The free radical-induced […] of fluorescein decreases its fluorescence. The antioxidant molecules will reduce this degradation

Another test concerns G3PDH. Nature of the test: Slimming: G3PDH activity in differentiating human preadipocytes. It counts as cell-based. The conditions noted are these: for Act G3PDH: 10 days of differentiation, control 220.2 +/− 32.8; for Act G3PDH % Change: vs control. Here is the method: Human preadipocytes are cultured and induced to differentiate in the presence of oridonin. After 10 days of differentiation, G3PDH activity was measured in cell homogenates as a marker of differentiation. (n=4).

The values below come from patent US9050477B2, “Cosmetic compositions comprising oridonin and new cosmetic uses” (SEDERMA, priority 2009, dated 2015).

In the case of `CC(=O)Oc1ccccc1C(=O)O` [aspirin], the “Mean score (inflammation index)” value in the test with chorioallantoic membrane was 2 +/− 2.06.
As to `C=C1C(=O)[C@]23[C@H](O)[C@H]1CC[C@H]2[C@@]12CO[C@]3(O)[C@@H](O)[C@@H]1C(C)(C)CC[C@@H]2O` [oridonin], the results for the “GSH change as % of control” value in test [1] (oridonin 3 ppm) and in test [1] (oridonin 4.5 ppm) were “+41%; p < 0.01” and “+79%; p < 0.01”, respectively. The “% Change/control (melanin content)” value was −23%; p < 0.01 with Human melanocytes (oridonin alone, 2.25 ppm); −34%; p < 0.01 with Human melanocytes (oridonin alone, 3 ppm); −21%; p < 0.01 in the test with Human melanocytes (oridonin alone, 5 ppm (so in the source)); −16%; p < 0.01 in the test on Human melanocytes (oridonin alone, 125 ppm (so in the source)). Moreover, the results for the “effect on the reduction of the destruction of fluorescein by free radicals” value in test [2] (oridonin 1.5 ppm), in test [2] (oridonin 3 ppm) and in test [2] (oridonin 4.5 ppm) were “+14%; p < 0.01”, “+4%; dns” and −4%; dns, respectively. The “Act G3PDH” value is given as 162.1 +/− 31.4 mU/10^6 cell in the test with G3PDH (oridonin 2.7 ppm) and 127.7 +/− 19.2 mU/10^6 cell with G3PDH (oridonin 3.6 ppm). The “Act G3PDH % Change” value is −26%; p < 0.05 with G3PDH (oridonin 2.7 ppm) and −42%; p < 0.01 in the test with G3PDH (oridonin 3.6 ppm).
As to darutoside, the “GSH change as % of control” value in test [1] (darutoside 10 ppm) is recorded as “+3%; dns”; in test [1] (darutoside 15 ppm), “+2%; dns”. Besides, the “% Change/control (melanin content)” value is on record as “+1%; dns” with Human melanocytes (darutoside alone, 3.75 ppm); “+2%; dns” in the test with Human melanocytes (darutoside alone, 5 ppm); −4%; dns with Human melanocytes (darutoside alone, 7.5 ppm); −7%; p < 0.05 with Human melanocytes (darutoside alone, 10 ppm).
